From patent publication US12708673B2, “Methods and compositions related to peptides and proteins with c-terminal elements” (Sanford Burnham Prebys Medical Discovery Institute, priority 2008, dated 2026)

Target: T1, triple mutant NS346A-E348A-T349A NRP-1 (Homo sapiens, UniProt O14786, E348A/S346A/T349A)
T1 construct: expressed in transfected cells; host or cells: M21 melanoma cells, transient transfection with lipofectamine; site-directed mutant of the wild-type NRP-1 cDNA in pcDNA3.1(+)
Test: Phage binding to M21 melanoma cells transfected with NRP-1 binding pocket mutant
Type: cell-based
Experimental: FIGS. 18A-18C show the identification and validation of NRP-1 as the CendR receptor. FIG. 18A: Affinity chromatography of proteins interacting with RPARPAR (SEQ ID NO: 2) peptide. PPC-1 tumor tissue was extracted with a 200 mM glucopyranoside buffer, and the extract was incubated with RPARPAR-coated (SEQ ID NO:2) beads, followed by extensive washes, and elution with 2 mM free RPARPAR (SEQ ID NO:2) peptide. Note appearance of a 130 kDa band, identified by mass spectroscopy as NRP-1, starting in the fraction 3 of the eluate. Upper panel—a silver stained gel, lower panel—an immunoblot with anti-NRP-1 antibody. FIG. 18B: Binding of RPARPAR (SEQ ID NO:2) phage to M21 melanoma cells transiently transfected with wild-type NRP-1 (NRP-1), triple mutant NS346A-E348A-T349A NRP-1 (Mutant NRP-1), or parental pcDNA3.1plasmid (Vector), and to non-transfected M21 cells. FIG. 18C: (c, d), Confocal immunofluorescence images of NRP-1 and RPARPAR (SEQ ID NO:2) T7 phage in PPC-1 cells incubated with phage at 37° C. for 40 minutes (c) and 3 hours (d). The phage and NRP-1 co-localize extensively, but there appears to be a progressive decrease in the overlap (arrowheads in c and d) and appearance of structures positive for the phage only (arrows, d). (e) Immunostaining and confocal imaging of RPARPAR (SEQ ID NO:2) phage and NRP-1 in M21 cells transiently transfected with NRP-1. […]

T1 sequence (O14786 22-923 S346A/E348A/T349A): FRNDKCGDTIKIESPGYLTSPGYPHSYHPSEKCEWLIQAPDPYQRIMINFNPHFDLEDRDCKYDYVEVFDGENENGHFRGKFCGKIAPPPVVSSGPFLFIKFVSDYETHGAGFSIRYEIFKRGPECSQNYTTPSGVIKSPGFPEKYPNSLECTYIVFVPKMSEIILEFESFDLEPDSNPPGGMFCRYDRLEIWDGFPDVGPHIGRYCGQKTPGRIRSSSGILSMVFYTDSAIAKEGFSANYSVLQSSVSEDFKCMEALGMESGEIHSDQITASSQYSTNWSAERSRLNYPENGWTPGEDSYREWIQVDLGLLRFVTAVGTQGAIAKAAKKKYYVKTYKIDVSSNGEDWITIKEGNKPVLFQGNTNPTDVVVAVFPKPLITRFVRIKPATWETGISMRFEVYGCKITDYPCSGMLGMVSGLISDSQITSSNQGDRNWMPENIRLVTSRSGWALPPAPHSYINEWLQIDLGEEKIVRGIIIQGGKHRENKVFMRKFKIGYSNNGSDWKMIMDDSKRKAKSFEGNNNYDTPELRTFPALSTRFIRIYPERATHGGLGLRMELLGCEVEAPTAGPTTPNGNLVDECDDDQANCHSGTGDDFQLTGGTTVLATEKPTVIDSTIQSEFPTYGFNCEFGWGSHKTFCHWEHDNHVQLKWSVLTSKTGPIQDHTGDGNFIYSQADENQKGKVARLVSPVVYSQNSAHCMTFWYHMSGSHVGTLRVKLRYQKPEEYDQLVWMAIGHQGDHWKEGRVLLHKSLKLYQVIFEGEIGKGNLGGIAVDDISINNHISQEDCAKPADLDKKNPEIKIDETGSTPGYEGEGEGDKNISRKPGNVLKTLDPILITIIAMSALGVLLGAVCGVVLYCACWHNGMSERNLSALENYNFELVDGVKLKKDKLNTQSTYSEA

RPARPAR [RPARPAR phage]
Phage binding to M21 cells transfected with NRP-1 binding pocket mutant: did not confer
